Reference: the NIST ThermoML archive (doi:10.1021/acs.jced.5b00936)

Assays:
[1] = for viscosity / mass density: 100 kPa, Liquid; for viscosity: Concentric cylinders viscometry; for mass density: Vibrating tube method; for Triple point temperature: Crystal, DSC
[2] = refractive index (Na D-line) (dimensionless); settings: 100 kPa, Liquid, Standard Abbe refractometry

CCCC[N+](CCCC)(CCCC)CCCC.O=S(=O)([O-])CCN(CCO)CCO
Settings | mass density, [1] [kg/m3] | refractive index, [2] | viscosity, [1] [mPa·s]
288.15 K | – | 1.49093 | –
293.15 K | – | 1.48966 | –
298.15 K | – | 1.48834 | –
303.15 K | – | 1.48706 | –
308.15 K | – | 1.48577 | –
313.15 K | 1052.4 | 1.48445 | 12001
318.15 K | 1049.6 | 1.48317 | 7582.5
323.15 K | 1046.8 | 1.48185 | 4970.6
328.15 K | 1044 | 1.48052 | 3346.6
333.15 K | 1041.2 | 1.4792 | 2305.7
338.15 K | 1038.4 | 1.47784 | 1621.8
343.15 K | 1035.6 | 1.47646 | 1163.2
348.15 K | 1032.8 | 1.47502 | 848.3
353.15 K | 1030.1 | 1.47363 | 630

CCCC[P+](CCCC)(CCCC)CCCC.O=S(=O)([O-])CC(O)CN1CCOCC1 [tetrabutylphosphonium 2-hydroxy-3-morpholinopropanesulfonate]
Settings | mass density, [1] [kg/m3] | refractive index, [2] | viscosity, [1] [mPa·s]
288.15 K | 1062.9 | 1.4959 | 22869
293.15 K | 1059.9 | 1.49447 | 12430
298.15 K | 1056.8 | 1.49299 | 7312.9
303.15 K | 1053.7 | 1.49152 | 4493.6
308.15 K | 1050.5 | 1.48999 | 2859.8
313.15 K | 1047.5 | 1.48836 | 1889.2
318.15 K | 1044.4 | 1.4866 | 1277
323.15 K | 1041.3 | 1.48573 | 886.7
328.15 K | 1038.2 | 1.4841 | 630.4
333.15 K | 1035.1 | 1.48239 | 457.8
338.15 K | 1032.1 | 1.48069 | 339.2
343.15 K | 1029.1 | 1.47908 | 255.6
348.15 K | 1026.2 | 1.47761 | 195.8
353.15 K | – | 1.47622 | 152.3

C[N+](C)(C)CCO.O=S(=O)([O-])CC(O)CNC(CO)(CO)CO (configuration not stated)
Settings | mass density, [1] [kg/m3] | refractive index, [2] | viscosity, [1] [mPa·s]
323.15 K | – | 1.50991 | –
328.15 K | 1316.4 | 1.50884 | 56778
333.15 K | 1313.3 | 1.50769 | 34168
338.15 K | 1310.3 | 1.50654 | 21501
343.15 K | 1307.4 | 1.50552 | 14013
348.15 K | 1304.6 | 1.5044 | 9355.9
353.15 K | 1301.8 | 1.50327 | 6385.4

CCCC[N+](CCCC)(CCCC)CCCC.O=S(=O)([O-])CC(O)CNC1CCCCC1
Settings | mass density, [1] [kg/m3] | refractive index, [2] | viscosity, [1] [mPa·s]
308.15 K | 1020.4 | 1.48329 | 41227
313.15 K | 1017.3 | 1.48189 | 22114
318.15 K | 1014.4 | 1.48037 | 12579
323.15 K | 1011.5 | 1.47937 | 7480.4
328.15 K | 1008.6 | 1.47772 | 4609.3
333.15 K | 1005.7 | 1.47617 | 2935.7
338.15 K | 1002.8 | 1.47449 | 1926.8
343.15 K | 999.9 | 1.47291 | 1299.4
348.15 K | 997.2 | 1.47137 | 898.5
353.15 K | 994.3 | 1.46985 | 635.7

CCCC[P+](CCCC)(CCCC)CCCC.O=S(=O)([O-])CC(O)CNC1CCCCC1
Settings | mass density, [1] [kg/m3] | refractive index, [2] | viscosity, [1] [mPa·s]
288.15 K | 1037.4 | 1.49654 | 32956
293.15 K | 1034.2 | 1.49497 | 17587
298.15 K | 1031.1 | 1.49313 | 10098
303.15 K | 1028.2 | 1.49162 | 6481.6
308.15 K | 1025.1 | 1.48983 | 3796
313.15 K | 1022.1 | 1.48782 | 2441.9
318.15 K | 1019 | 1.48724 | 1624.2
323.15 K | 1016 | 1.48547 | 1109.7
328.15 K | 1012.9 | 1.48368 | 779.6
333.15 K | 1009.8 | 1.48202 | 558.2
338.15 K | 1006.8 | 1.48045 | 409
343.15 K | 1003.8 | 1.47902 | 304.6
348.15 K | 1000.9 | 1.47764 | 231
353.15 K | 997.9 | 1.4763 | 177.9

C[N+](C)(C)CCO.O=S(=O)([O-])CC(O)CN1CCOCC1 (configuration not stated)
Settings | mass density, [1] [kg/m3] | refractive index, [2] | viscosity, [1] [mPa·s]
308.15 K | 1235.3 | 1.49778 | 49189
313.15 K | 1232 | 1.49658 | 28090
318.15 K | 1228.7 | 1.49531 | 16897
323.15 K | 1225.6 | 1.49453 | 10898
328.15 K | 1222.5 | 1.49323 | 6933.2
333.15 K | 1219.5 | 1.49185 | 4600.3
338.15 K | 1216.5 | 1.48995 | 3099.4
343.15 K | 1213.5 | 1.48831 | 2158.8
348.15 K | 1211.6 | 1.48671 | 1545.5
353.15 K | 1209.7 | 1.4852 | 1122.3

CCCC[N+](CCCC)(CCCC)CCCC.O=S(=O)([O-])CC(O)CNC(CO)(CO)CO
Settings | Triple point temperature [K]
[1] | 364.15

C[N+](C)(C)CCO.O=S(=O)([O-])CC(O)CNC1CCCCC1 (configuration not stated)
Settings | Triple point temperature [K]
[1] | 365.15

C[N+](C)(C)CCO.O=S(=O)([O-])CCN(CCO)CCO
Settings | mass density, [1] [kg/m3] | refractive index, [2] | viscosity, [1] [mPa·s]
293.15 K | 1248 | – | 33236
298.15 K | 1244.8 | 1.50047 | 20518
303.15 K | 1241.8 | 1.49937 | 13056
308.15 K | 1238.9 | 1.49826 | 8631.6
313.15 K | 1236.1 | 1.49716 | 5848.4
318.15 K | 1233.3 | 1.49602 | 4045.8
323.15 K | 1230.5 | 1.49476 | 2861
328.15 K | 1227.7 | 1.49317 | 2061.7
333.15 K | 1224.9 | 1.49148 | 1526.8
338.15 K | 1222.2 | 1.49052 | 1136.6
343.15 K | 1219.5 | 1.48921 | 858.1
348.15 K | 1216.8 | 1.48749 | 658.8
353.15 K | 1214.1 | 1.48633 | 512.7

CCCC[N+](CCCC)(CCCC)CCCC.O=S(=O)([O-])CC(O)CN1CCOCC1 [tetrabutylammonium 2-hydroxy-3-morpholinopropanesulfonate]
Settings | mass density, [1] [kg/m3] | refractive index, [2] | viscosity, [1] [mPa·s]
308.15 K | 1051.2 | 1.48328 | 34148
313.15 K | 1048.2 | 1.48188 | 18392
318.15 K | 1045.3 | 1.48038 | 10603
323.15 K | 1042.3 | 1.47873 | 6381.1
328.15 K | 1039.4 | 1.47693 | 3976.3
333.15 K | 1035.8 | 1.47525 | 2571.7
338.15 K | 1033.1 | 1.47377 | 1702.9
343.15 K | 1030.4 | 1.47242 | 1158.3
348.15 K | 1027.6 | 1.47111 | 807.1
353.15 K | 1024.7 | 1.46984 | 574.9

CCCC[P+](CCCC)(CCCC)CCCC.O=S(=O)([O-])CCN(CCO)CCO
Settings | mass density, [1] [kg/m3] | refractive index, [2] | viscosity, [1] [mPa·s]
288.15 K | 1066.8 | 1.49778 | 41313
293.15 K | 1063.9 | 1.4964 | 24078
298.15 K | 1061 | 1.49502 | 14082
303.15 K | 1058.1 | 1.49365 | 8504.9
308.15 K | 1055.3 | 1.49333 | 5315.8
313.15 K | 1052.4 | 1.49198 | 3370.9
318.15 K | 1049.6 | 1.49061 | 2199.4
323.15 K | 1046.8 | 1.48921 | 1356.9
328.15 K | 1044 | 1.48744 | 871
333.15 K | 1041.2 | 1.4859 | 611.8
338.15 K | 1038.4 | 1.48437 | 458.9
343.15 K | 1035.6 | 1.48287 | 352.3
348.15 K | 1032.8 | 1.48142 | 273.6
353.15 K | 1030.1 | 1.48003 | 214.5

CCCC[P+](CCCC)(CCCC)CCCC.O=S(=O)([O-])CC(O)CNC(CO)(CO)CO
Settings | Triple point temperature [K]
[1] | 369.15
